Data on 8 compounds can be found in PubChem BioAssay (NCI).

Some test systems named below: A549 NSCLC; OVCAR-3 ovarian; HOP-62 NSCLC; HCC-2998 colon; NCI/ADR-RES ovarian; OVCAR-4 ovarian; LOX IMVI melanoma; A498 renal; EKVX NSCLC; BT-549 breast.
Experiment in all cases: inhibition of tumour cell growth, NCI panel, 48 h

Each structure is given as a SMILES string. Values joined by “and” are separate entries in the source; they are usually repeats but may differ in a detail not shown here. Equal entries are not always repeated.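 Five compound concentrations were applied to cells in 96-well plates for 48 hours; endpoints were derived by simple linear interpolation of the resulting dose-response curve. The concentration for 50% growth inhibition is given as GI50. At the TGI there is no net growth.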

As for `COc1cc(NS(C)(=O)=O)ccc1Nc1c2ccc(Cl)cc2nc2c(OC)cccc12`, the GI50 in the assay with A549 NSCLC was 0.0135 µM; in the assay with OVCAR-3 ovarian, 0.719 µM; in the assay with HOP-62 NSCLC, 0.0561 µM; with HCC-2998 colon it was 0.826 µM; with NCI/ADR-RES ovarian, 1.35 µM; with OVCAR-4 ovarian, 2.32 µM. For the same compound, the GI50 in the assay with LOX IMVI melanoma is 0.109 µM; with A498 renal it was 0.156 µM; with EKVX NSCLC, 6.2 µM; in the assay on BT-549 breast it was 0.441 µM. Further, the TGI in the assay with A549 NSCLC was 1.35 µM; in the assay on OVCAR-3 ovarian it was 2.51 µM; with HOP-62 NSCLC it was 1.44 µM; in the assay on HCC-2998 colon, 5.23 µM; in the assay with NCI/ADR-RES ovarian, more than 49.4 µM; with OVCAR-4 ovarian it was 16.7 µM. Further, the TGI with A498 renal came to 2.24 µM; with EKVX NSCLC, 26.7 µM; in the assay on BT-549 breast, 2.24 µM.
Consider `COc1cc(C(=O)c2ccc3c(c2)OCO3)cc(OC)c1OC`, for which the GI50 is 6.03 µM in the assay on A549 NSCLC; 1.4 µM in the assay with OVCAR-3 ovarian; 3.34 µM in the assay on HOP-62 NSCLC; 9.73 µM with HCC-2998 colon; 0.987 µM in the assay with NCI/ADR-RES ovarian; 5.14 µM with OVCAR-4 ovarian. The GI50 in the assay on LOX IMVI melanoma is 6.69 µM; with A498 renal it was 1.75 µM; in the assay on EKVX NSCLC, 3.77 µM; in the assay on BT-549 breast it was 7.09 µM. Also, the TGI is more than 100 µM in the assay with A549 NSCLC; 3.93 µM with OVCAR-3 ovarian; more than 100 µM in the assay with HOP-62 NSCLC; more than 100 µM with HCC-2998 colon; more than 100 µM with NCI/ADR-RES ovarian; more than 100 µM in the assay on OVCAR-4 ovarian. Besides, the TGI in the assay on LOX IMVI melanoma was more than 100 µM; in the assay with A498 renal, 7.93 µM; in the assay with EKVX NSCLC, more than 100 µM; with BT-549 breast it was more than 100 µM.
On to `Cc1cc2c(cc1Cl)SC1=CC(=O)N(c3ccccc3)C1=NS2(=O)=O`, for which the GI50 is more than 100 µM in the assay with A549 NSCLC; more than 100 µM in the assay on OVCAR-3 ovarian; 46 µM in the assay on HOP-62 NSCLC; 37.8 µM with NCI/ADR-RES ovarian; 65.3 µM in the assay with OVCAR-4 ovarian; 26.2 µM with LOX IMVI melanoma. Also, the figures for the GI50 with EKVX NSCLC and in the assay with BT-549 breast were more than 100 µM and 30 µM, respectively. Also, the TGI in the assay on A549 NSCLC is more than 100 µM; with OVCAR-3 ovarian, more than 100 µM; in the assay with HOP-62 NSCLC it was more than 100 µM; with NCI/ADR-RES ovarian it was more than 100 µM; with OVCAR-4 ovarian, more than 100 µM; in the assay with LOX IMVI melanoma, 61.1 µM. Besides, the TGI in the assay with EKVX NSCLC was more than 100 µM; in the assay with BT-549 breast it was 65.3 µM.
`Cn1nccc1Nc1nccc(-c2cc3c(s2)C(C)(C)N(CCN2CCOCC2)C3=O)n1`: the GI50 in the assay on A549 NSCLC is 5.27 µM; in the assay on OVCAR-3 ovarian it was 27.2 µM; in the assay with HOP-62 NSCLC, 7.53 µM; in the assay on HCC-2998 colon, 0.602 µM; with NCI/ADR-RES ovarian it was 56 µM; with OVCAR-4 ovarian, 24 µM. In addition, the GI50 in the assay with LOX IMVI melanoma was 0.734 µM; in the assay on A498 renal it was 0.659 µM; in the assay with EKVX NSCLC, 3.1 µM; in the assay with BT-549 breast it was 19 µM. Moreover, the TGI in the assay with A549 NSCLC, in the assay on OVCAR-3 ovarian, with HOP-62 NSCLC, with HCC-2998 colon, with NCI/ADR-RES ovarian and in the assay on OVCAR-4 ovarian was more than 100 µM throughout. For the same compound, the TGI with LOX IMVI melanoma was more than 100 µM; in the assay on A498 renal it was 5.99 µM; with EKVX NSCLC, more than 100 µM; with BT-549 breast it was 99.8 µM.
On to `C/C=C(\C)C(=O)N[C@H]1CC[C@]2(C)C3CC[C@@]4(C)C(CC[C@@H]4C(C)N(C)C)C3CCC2[C@H]1OC(C)=O` (stereo partly drawn), for which the GI50 was 2.07 µM in the assay with A549 NSCLC; 1.59 µM in the assay with OVCAR-3 ovarian; 1.76 µM with HOP-62 NSCLC; 1.56 µM with HCC-2998 colon; 3.11 µM in the assay with NCI/ADR-RES ovarian; 2.43 µM in the assay with OVCAR-4 ovarian. Further, the GI50 was 1.42 µM with LOX IMVI melanoma, 1.43 µM with A498 renal, 2.06 µM with EKVX NSCLC and 2.07 µM with BT-549 breast. For the same compound, the TGI with A549 NSCLC was 4.69 µM; with OVCAR-3 ovarian, 4.34 µM; in the assay with HOP-62 NSCLC, 3.46 µM; with HCC-2998 colon, 2.97 µM; in the assay on NCI/ADR-RES ovarian, 12 µM; in the assay on OVCAR-4 ovarian, 14.6 µM. Besides, the TGI turned out to be 2.78 µM in the assay on LOX IMVI melanoma, 3.51 µM in the assay with A498 renal, 8.62 µM in the assay with EKVX NSCLC and 5.48 µM in the assay with BT-549 breast.
In the case of `CCOc1c(Br)cc(C2C(C(=O)OC)=CN(C)C=C2C(=O)OC)cc1OC`, the GI50 in the assay with A549 NSCLC was 47.8 µM; with OVCAR-3 ovarian, 45.6 µM; with HOP-62 NSCLC it was more than 100 µM; in the assay with HCC-2998 colon, more than 100 µM; with NCI/ADR-RES ovarian, 43.6 µM; in the assay on OVCAR-4 ovarian, 54.1 µM. For the same compound, the results for the GI50 in the assay with LOX IMVI melanoma, in the assay with A498 renal and in the assay with BT-549 breast were 85.1 µM, 16.5 µM and 76 µM, respectively. For the same compound, the TGI in the assay with A549 NSCLC, with OVCAR-3 ovarian, with HOP-62 NSCLC, in the assay with HCC-2998 colon, with NCI/ADR-RES ovarian and with OVCAR-4 ovarian was more than 100 µM throughout. Moreover, the TGI in the assay with LOX IMVI melanoma is more than 100 µM; in the assay with A498 renal, 98.2 µM; with BT-549 breast it was more than 100 µM.
Turning to `CC1=C(C(=O)Nc2ccc(F)c(Cl)c2)C(c2ccccc2Cl)NC(=S)N1` (stereo not drawn), the GI50 in the assay on A549 NSCLC is 24.8 µM; with OVCAR-3 ovarian, 39.5 µM; with HOP-62 NSCLC it was more than 50 µM; in the assay with NCI/ADR-RES ovarian, 18 µM; with LOX IMVI melanoma it was 15.1 µM; with A498 renal, 12.9 µM. For the same compound, the GI50 in the assay on EKVX NSCLC and in the assay with BT-549 breast was more than 50 µM each time. The TGI is more than 50 µM with A549 NSCLC; more than 50 µM with OVCAR-3 ovarian; more than 50 µM in the assay on HOP-62 NSCLC; 49.1 µM with NCI/ADR-RES ovarian; more than 50 µM in the assay on LOX IMVI melanoma; 48.1 µM with A498 renal. The TGI in the assay on EKVX NSCLC and with BT-549 breast was more than 50 µM throughout.
Turning to `CCCCCCCCCCCCCC(=O)O[C@H]1CC[C@H](NC(=O)[C@H](OC)[C@H](O)[C@@H](O)[C@H](O)/C=C/C(C)C)C(=O)NC1`, the TGI in the assay on A549 NSCLC is 7.34 µM and 13.8 µM; in the assay on OVCAR-3 ovarian, 10.5 µM and 17.9 µM; in the assay on HOP-62 NSCLC it was 51.2 µM and 34 µM; in the assay on NCI/ADR-RES ovarian, 51.2 µM and 26.3 µM; with OVCAR-4 ovarian it was 29 µM and 31.3 µM; in the assay on LOX IMVI melanoma it was 9.4 µM and 1.15 µM. The TGI with A498 renal is 51.2 µM and > 100 µM; in the assay on EKVX NSCLC it was 36.8 µM and 23.4 µM; in the assay with BT-549 breast it was 51.2 µM. The GI50 was 0.00435 µM in the assay with OVCAR-3 ovarian; less than 0.001 µM with HOP-62 NSCLC; 3.58 µM in the assay on NCI/ADR-RES ovarian; 0.00276 µM with OVCAR-4 ovarian; 12.8 µM with BT-549 breast.
